Source: patent publication US5780242A, “Bioassay for the screening of ION channel active molecules” (priority 1995, dated 1998)
Entries after “also recorded” stand apart in the source; their conditions may differ. Counter-ions that a name gives are not always drawn. Like-named read-outs stand apart in the source and are kept apart here.

What was measured:
[1] = system: AChE preparation (sodium channel neuroreceptor); experiment: Circular dichroism bioassay at 222 nm: temperature-dependent helix-coil transition of the AChE/neuroreceptor preparation in presence of drug; format: binding, bovine; settings: for molar ellipticity [θ] at 222 nm, 30° C. / molar ellipticity [θ] at 222 nm, 35° C. / molar ellipticity [θ] at 222 nm, 38° C. / stabilization of the alpha helix / prevention of the helical transition between 30° C. and 35° C.: pH 7.0; for temperature needed to elicit the helix-coil transition in presence of drug: versus preparation without drug; for stabilization of the alpha helix / prevention of the helical transition between 30° C. and 35° C.: fresh preparations
Protocol: (§1) A baseline of the solution is obtained using 222 nm without removing the cell after a run is begun to allow for thermal stabilization. Prior to adding the drug to the enzyme, a blank run consisting only of the drug at the same concentration used in the enzyme study is made. To obtain control data, temperature changes of 5 degrees centigrade in the neuroreceptor solution alone are made using a Forma water bath. Then the drug is added to a sample of the purified neuroreceptor solution, and the stabilizing effect of the drug on the temperature-related conformational changes is noted. All temperature runs are allowed to equilibrate for one hour before data is collected.
All studies are made in 1 mm, 5 mm and 2 mm cells using a Jouan Dichrograph II at 1×10^-5 O.D./mm sensitivity. The sample solution consists of 30 mM Na2 HPO4, pH 7.0, and the enzyme. Protein concentration is determined empirically and then measured by the Lowry method after the run. Lowry, et al., J Biol Chem, 193: 265-275 (1951). Samples are taken directly from G-200 fractions or DEAE-Cellulose fractions previously dialyzed against 30 mM Na2 HPO4, pH 7.0.
Thermal studies are carried out in the 10 mm cell. Care must be taken not to misplace the cell in the cell holder to avoid spectral changes. Additionally, since the absorption is affected by pressure, the ORD cell's glass stopper must be gently seated. for the thermal runs of Prep A, a micro-thermometer is used to record the temperature in the ORD cell after each spectral recording.
The routine consists of beginning a CD spectral scan followed by running each activity blank at that temperature using 3 minute reading intervals. The next CD spectral scan is made after recording the temperature in the ORD cell. The data recorded consists of duplicates of CD spectra with cell temperatures varying 5 degrees centigrade at 222 nm.
Pilocarpine, reagent grade, was used at 1.33×10^-6 M in the sample solutions.
A buffer solution of 20 mM Na2 HPO4, pH 7.0, gives minimal absorption problems in the range 300 nm to 195 nm. Enzyme solutions contain from 21 μg/ml to 31 μ/ml of protein in buffer. Total ORD cell volume is 3.0 ml.
A buffer solution of 30 Na2 HPO4, pH 7.0,gave minimal absorption problems in the range 300 nm to 195 nm. Enzyme solutions contained from 21 μg/ml to 31 μg/ml of protein in buffer. Total ORD cell volume was 3.0 ml. Drugs were added to ORD cells in 0.002 ml volumes in order to minimize dilution effects. A Roussel-Jouan Dichrograph 11 sensitive to 1×10^-5 dichroic absorption unit per recording mm was used with a 10 mm, strain free, quartz ORD cell (Pyrocell, New Jersey, U.S.A.).
(§2) Again CD spectra were obtained using the above thermal apparatus over the range of 230 nm to 215 nm. A baseline of the enzyme solution was obtained using 300 nm to 285 nm without removing the cell after a run was begun. Prior to adding the drug to the enzyme, a blank run consisting only of the drug at the same concentration used in the enzyme study was made. To obtain control data, temperature changes in the enzyme solution alone were made using a Forma water bath. Then the drug was added to another enzyme solution with the same protein concentration which came from the stock solution, and temperature effects were noted. All temperature runs were allowed to equilibrate for one hour before data were collected.
Data for CD was expressed so that experimental values could be compared with published helix composition values. All graphs and raw data were expressed as molar el lipticity [.THETA.] based on mean residue molecular weight because the true molecular weight of AChE has not been established for the brain enzyme.

[2] = Circular dichroism blank run of the drug alone; format: physicochemical; settings: for ellipticity of drug alone: 215 nm to 230 nm / 222 nm; for molar ellipticity [θ] of drug alone, 30° C.: no enzyme, 222 nm
Protocol: as §1, §2

[3] = local anesthesia; cited from earlier work
[4] = cited from earlier work
AChE = AChE (Bos taurus, UniProt P23795); experiment: Salt study: effect of MgSO4 on AChE of Prep E (AChE activity and CD helix); format: biochemical, bovine
Protocol: An AChE preparation (Prep E) was made using the scheme of S. L. Chan, supra "Purification of Beef Brain Acetylcholinesterase" Proceedings of the Western Pharmacology Society, 13:43-47, 1970. The AChE in 0.4M NaCl/[…] Na2 HPO4 was lyophilized and resuspended in 2.5 ml deionized water. The CD spectrum was made, and activity was checked qualitatively. The sample was dialyzed against 100 mM MgSO4 for 12 hours. AChE activity was qualitatively checked with CD. The sample was then redialyzed against 0.4M NaCl/30 mM Na2 HPO4 for 12 hours, checked for AChE activity and for CD absorption.
Activity of AChE was determined at 25° C.-30° C. and pH 8.0 by the spectrophotometric method of Ellman et al (Biochemical Pharmacology, 7:88-95 (1961). Measurements were made in the Hitachi Perkin-Elmer Model 139 spectrophotometer at 412 nm and 0.1 nm slit. One unit of AChE activity was defined as 1 μM of ATC (acetyl thiocholine iodide,Sigma) hydrolyzed per hour at 25° C. Specific activity is expressed as μmoles ATC hydrolyzed/ mg protein/ hour.

[5] = rats; cited from earlier work
[6] = mice; cited from earlier work
[7] = 7 Day old AChE with drug, 222 nm
[8] = AChE Prep B (7 Days Later) plus drug 1.33×10^-6 M, 222 nm
[9] = AChE Prep B (7 Days Later) plus drug 1.33×10^-6 M
[10] = AChE Prep B (7 Days Later), 222 nm
[11] = Fresh AChE (Prep C) plus drug 1.33×10^-6 M, 222 nm
[12] = Fresh AChE (Prep C) plus drug 1.33×10^-6 M
[13] = Fresh AChE (Prep B) plus drug 1.33×10^-6 M

Sequence of AChE (P23795 31-613): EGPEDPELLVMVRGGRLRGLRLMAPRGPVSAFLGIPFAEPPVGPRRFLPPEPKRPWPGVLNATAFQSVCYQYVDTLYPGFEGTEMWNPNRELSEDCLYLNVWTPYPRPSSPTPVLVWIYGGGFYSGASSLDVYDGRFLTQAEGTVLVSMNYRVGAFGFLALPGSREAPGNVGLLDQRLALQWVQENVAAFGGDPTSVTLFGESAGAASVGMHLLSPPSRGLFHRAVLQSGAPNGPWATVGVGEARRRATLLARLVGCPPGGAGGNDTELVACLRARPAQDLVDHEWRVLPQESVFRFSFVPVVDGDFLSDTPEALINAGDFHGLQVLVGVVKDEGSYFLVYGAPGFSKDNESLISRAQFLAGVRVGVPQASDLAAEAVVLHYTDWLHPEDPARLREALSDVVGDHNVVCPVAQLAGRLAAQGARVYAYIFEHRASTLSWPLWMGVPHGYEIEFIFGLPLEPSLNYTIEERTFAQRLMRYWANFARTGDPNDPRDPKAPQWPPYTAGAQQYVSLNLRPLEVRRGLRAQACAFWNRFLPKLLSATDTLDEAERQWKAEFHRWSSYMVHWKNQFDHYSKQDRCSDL

## CCN(CC)CC(=O)Nc1c(C)cccc1C [Lidocaine, Lidocaine hydrochloride monohydrate]
[1]; [7]
  % Loss of Helix (30° C. to 35° C.): 16.8%
[1]; [8]
  [θ]30 - [θ]35: 600
[1]; [9]
  molar ellipticity [θ] at 222 nm, 30° C.: -3,590
[1]; [10]
  Difference of Lidocaine from Above AChE, 30° C.: +540
  Difference of Lidocaine from Above AChE, 35° C.: +480
[1]; [11]
  [θ]30 - [θ]35: 100
  [θ]38 - [θ]35: 770
[1]; [12]
  molar ellipticity [θ] at 222 nm, 30° C.: -5,560
  molar ellipticity [θ] at 222 nm, 35° C.: -5,500
  molar ellipticity [θ] at 222 nm, 38° C.: -4,830
[1]; Fresh AChE with drug, 222 nm
  % Loss of Helix (30° C. to 35° C.): 1.8%
  % Loss of Helix (35° C. to 40° C.): 13.6%
[1]
  temperature needed to elicit the helix-coil transition in presence of drug: Higher temperatures were necessary
[2]
  ellipticity of drug alone: no ellipticity
[3]
  duration of effective action: 1 to 2 h
[4]; compared with procaine
  allergic reactions: fewer known allergic reactions than procaine
[4]; in vivo
  side effect: drowsiness

## O=S(=O)([O-])[O-].[Mg+2] [MgSO4]
AChE; AChE Prep E in 100 mM MgSO4, CD
  random coil at 195 nm: 35%
AChE; Prep E dialyzed against 100 mM MgSO4 for 12 hours
  AChE Qualitative Activity: 0
AChE; Prep E dialyzed against 100 mM MgSO4 for 12 hours, CD
  Helix 220 nm: 16 mm

## CN1CCCC1c1cccnc1 (stereo not drawn) [Nicotine]
[2]
  molar ellipticity [θ] of drug alone, 30° C.: -21,400

## CC[C@@H]1C(=O)OC[C@@H]1Cc1cncn1C [Pilocarpine]
[1]; [7]
  % Loss of Helix (30° C. to 35° C.): 20.7%
[1]; [8]
  [θ]30 - [θ]35: 720
[1]; [9]
  molar ellipticity [θ] at 222 nm, 30° C.: -3,590
  molar ellipticity [θ] at 222 nm, 35° C.: -2,280
[1]; Fresh AChE (Prep B) plus drug 1.33×10^-6 M, 222 nm
  [θ]30 - [θ]35: 800
[1]; [13]
  molar ellipticity [θ] at 222 nm, 30° C.: -11,300
  molar ellipticity [θ] at 222 nm, 35° C.: -10,500
[1]; [11]
  [θ]30 - [θ]35: 170
  [θ]38 - [θ]35: 780
[1]; [12]
  molar ellipticity [θ] at 222 nm, 30° C.: -4,490
  molar ellipticity [θ] at 222 nm, 35° C.: -4,320
  molar ellipticity [θ] at 222 nm, 38° C.: -3,540
[1]; Fresh AChE with drug, 222 nm
  % Loss of Helix (30° C. to 35° C.): 7.1%
  % Loss of Helix (35° C. to 40° C.): 17.5%
[1]; enzyme preparations more than one week old / not freshly prepared
  stabilization of helix in preparations not freshly prepared: not observed; also recorded: will not be protected
[1]; 222 nm
  stabilization of the alpha helix / prevention of the helical transition between 30° C. and 35° C.: appear to stabilize the helix
[1]; 222 nm, listed as pilocarpine
  stabilization of the alpha helix / prevention of the helical transition between 30° C. and 35° C.: prevent the helical transition
[1]
  temperature needed to elicit the helix-coil transition in presence of drug: Higher temperatures were necessary
[2]
  ellipticity of drug alone: positive ellipticity
  molar ellipticity [θ] of drug alone, 30° C.: +5,450

## CCCCN1CCCCC1C(=O)Nc1c(C)cccc1C (stereo not drawn) [bupivacaine]
[3]
  duration of effective action: 4 to 18 h

## CCCN(CC)C(CC)C(=O)Nc1c(C)cccc1C (stereo not drawn) [etidocaine]
[3]
  duration of effective action: 4 to 18 h

## Cc1cccc(C)c1NC(=O)C1CCCCN1C (stereo not drawn) [mepivacaine]
[3]
  duration of effective action: 2 to 3 h
  onset of action: rapid

## Cc1ccccc1N [ortho-toliudine]
[5]
  carcinogenicity: carcinogenic
[6]
  carcinogenicity: carcinogenic

## CCCNC(C)C(=O)Nc1ccccc1C (stereo not drawn) [prilocaine]
[3]
  duration of effective action: 2 to 3 h
[4]; doses greater than 400 mg
  side effect: methemoglobinemia
[4]; in vivo
  side effect: drowsiness

## CCN(CC)CCOC(=O)c1ccc(N)cc1 [procaine]
[3]
  duration of effective action: 1 to 2 h
